The subject of this test is YAP/TAZ-TEAD transcription. In words: Reporter gene assay for measuring the inhibition of YAP/TAZ-TEAD transcription. Format: cell-based. The conditions noted are these: Homo sapiens, HEK-293T; Hek293T cells transiently transfected with TEAD-responsive element luciferase reporter; 24 hours incubation. As to the method:
Hek293T cells are cultured in DMEM supplemented with 10% fetal bovine serum, Sodium pyruvate, Sodium bicarbonate, L-glutamine. The cells are harvested and transiently transfected with TEAD-responsive element luciferase reporter. Transfected cells are plated in 384-wells plate containing pre-diluted compounds. After 24 hours incubation at 37° C./5% CO2, assay plates were cooled down to RT and levelled to an equal volume per well, prior to the addition of 25 uL luciferase substrate SteadyLite (Perkin Elmer)/well. The plate was shaken for 10 min at 600 rpm, centrifuged for 1 min at 500 rpm and measured with an Envision reader (PerkinElmer). The amount of relative light units produced by the TEAD reporter is used to calculated percent of inhibition.
The percent of reporter inhibition was calculated in the presence of a positive control inhibitor (100% inhibition) versus a condition with the presence of the vehicle basal activity of the reporter (0% inhibition). The ability of a test compound to inhibit this activity was determined as: Percentage inhibition=[1−((RLU determined in the presence of vehicle−RLU determined for sample with test compound present) divided by (RLU determined in the presence of vehicle−RLU determined for sample with positive control inhibitor))]*100 The activities of example compounds tested are depicted in Table 8. The activity ranges A, B and C refer to IC50 values in the reporter gene assay as follows: “A”: EC50<1 μM; “B”: 1 μM≤EC50≤3.0 μM and “C”: EC50>3.0 μM, NT=not tested.
A general note: Reporter assays use an easily measured gene product as a stand-in for the process of interest.

Regarding `CCC(=O)NC1CCc2nc(-c3ccccc3)nc(-c3ccn(C)n3)c2C1` (stereo not shown) [Cpd. No. 3, N-(4-(1-methyl-1H-pyrazol-3-yl)-2-phenyl-5,6,7,8-tetrahydroquinazolin-6-yl)propionamide], the EC50 (in general, the concentration giving half of the maximal effect) is greater than 3000 nM.

For the molecule `C=CC(=O)N1CCc2c(nc(-c3ccccc3)nc2-c2ccn(C(C)C)n2)C1` [Cpd. No. 60, 1-(4-(1-isopropyl-1H-pyrazol-3-yl)-2-phenyl-5,8-dihydropyrido[3,4-d]pyrimidin-7(6H)-yl)prop-2-en-1-one], the 50% effective concentration (EC50) is less than 1000 nM.

`C=CC(=O)N1CCc2c(nc(Cc3ccc(F)cc3)nc2-c2ccn(C)n2)C1` [Cpd. No. 41, 1-(2-(4-fluorobenzyl)-4-(1-methyl-1H-pyrazol-3-yl)-5,8-dihydropyrido[3,4-d]pyrimidin-7(6H)-yl)prop-2-en-1-one] gave an EC50 of less than 1000 nM.

With `Cn1ccc(-c2nc(-c3ccc(C(F)(F)F)cc3)nc3c2CCN(C(=O)C2=CCCC2)C3)n1` [Cpd. No. 84, cyclopent-1-en-1-yl(4-(1-methyl-1H-pyrazol-3-yl)-2-(4-(trifluoromethyl)phenyl)-5,8-dihydropyrido[3,4-d]pyrimidin-7(6H)-yl)methanone], the EC50 is less than 1000 nM.

Consider `C=CC(=O)N1CCc2c(nc(-c3ccccc3)nc2-c2ccn(CC)n2)C1` [Cpd. No. 59, 1-(4-(1-ethyl-1H-pyrazol-3-yl)-2-phenyl-5,8-dihydropyrido[3,4-d]pyrimidin-7(6H)-yl)prop-2-en-1-one], for which the EC50 is less than 1000 nM.

Turning to `C=CC(=O)N1Cc2nc(Cc3ccccc3)nc(-c3ccn(Cc4cccnc4)n3)c2C1` [Cpd. No. 17, 1-(2-benzyl-4-(1-(pyridin-3-ylmethyl)-1H-pyrazol-3-yl)-5,7-dihydro-6H-pyrrolo[3,4-d]pyrimidin-6-yl)prop-2-en-1-one], the EC50 was less than 1000 nM.

On to `O=S(=O)(F)CCN1Cc2nc(Cc3ccccc3)nc(-c3ccn(Cc4cccnc4)n3)c2C1` [Cpd. No. 30, 2-(2-benzyl-4-(1-(pyridin-3-ylmethyl)-1H-pyrazol-3-yl)-5,7-dihydro-6H-pyrrolo[3,4-d]pyrimidin-6-yl)ethane-1-sulfonyl fluoride], for which the EC50 was greater than 3000 nM.

The molecule `C=CC(=O)N1CCc2c(nc(-c3ccccc3)nc2C(=O)NCc2cccnc2)C1` [Cpd. No. 58, 7-acryloyl-2-phenyl-N-(pyridin-3-ylmethyl)-5,6,7,8-tetrahydropyrido[3,4-d]pyrimidine-4-carboxamide] returned a half-maximal effective concentration (EC50) of 1000 to 3000 nM.

Take `C=CC(=O)N1CCc2c(-c3ccn(C)n3)nc(-c3ccc(C(F)(F)F)cc3)nc2C1C` (stereo not shown) [Cpd. No. 76, 1-(8-methyl-4-(1-methyl-1H-pyrazol-3-yl)-2-(4-(trifluoromethyl)phenyl)-5,8-dihydropyrido[3,4-d]pyrimidin-7(6H)-yl)prop-2-en-1-one]: the EC50 is less than 1000 nM.

For `Cn1ccc(-c2nc(-c3ccc(C(F)(F)F)cc3)nc3c2CCN(C(=O)CC#N)C3)n1` [Cpd. No. 75, 3-(4-(1-methyl-1H-pyrazol-3-yl)-2-(4-(trifluoromethyl)phenyl)-5,8-dihydropyrido[3,4-d]pyrimidin-7(6H)-yl)-3-oxopropanenitrile], the EC50 is 1000 to 3000 nM.

`C=CC(=O)N1Cc2nc(-c3ccccc3)nc(-c3ccn(C)n3)c2C1` [Cpd. No. 14, 1-(4-(1-methyl-1H-pyrazol-3-yl)-2-phenyl-5,7-dihydro-6H-pyrrolo[3,4-d]pyrimidin-6-yl)prop-2-en-1-one] registered an EC50 of less than 1000 nM.

Regarding `O=S(=O)(F)CCN1Cc2nc(-c3ccccc3)nc(-c3ccn(Cc4cccnc4)n3)c2C1` [Cpd. No. 29, 2-(2-phenyl-4-(1-(pyridin-3-ylmethyl)-1H-pyrazol-3-yl)-5,7-dihydro-6H-pyrrolo[3,4-d]pyrimidin-6-yl)ethane-1-sulfonyl fluoride], the EC50 is greater than 3000 nM.

With `C=CC(=O)NC1CCc2nc(-c3ccccc3)nc(-c3ccn(C)n3)c2C1` (stereo not shown) [Cpd. No. 2, N-(4-(1-methyl-1H-pyrazol-3-yl)-2-phenyl-5,6,7,8-tetrahydroquinazolin-6-yl)acrylamide], the EC50 is greater than 3000 nM.

Consider `C=CC(=O)N1CCc2c(nc(-c3ccccc3)nc2-c2ccccc2)C1` [Cpd. No. 64, 1-(2,4-diphenyl-5,8-dihydropyrido[3,4-d]pyrimidin-7(6H)-yl)prop-2-en-1-one], for which the EC50 is less than 1000 nM.

`CS(=O)(=O)NCC(=O)N1Cc2nc(Cc3ccccc3)nc(-c3ccn(Cc4cccnc4)n3)c2C1` [Cpd. No. 28, N-(2-(2-benzyl-4-(1-(pyridin-3-ylmethyl)-1H-pyrazol-3-yl)-5,7-dihydro-6H-pyrrolo[3,4-d]pyrimidin-6-yl)-2-oxoethyl)methanesulfonamide] had an EC50 greater than 3000 nM.

The molecule `CS(=O)(=O)NC1CCc2c(nc(-c3ccccc3)nc2-c2ccn(Cc3cccnc3)n2)C1` (stereo not shown) [Cpd. No. 13, N-(2-phenyl-4-(1-(pyridin-3-ylmethyl)-1H-pyrazol-3-yl)-5,6,7,8-tetrahydroquinazolin-7-yl)methanesulfonamide] returned an EC50 greater than 3000 nM.

On to `C=CC(=O)N1CCc2c(nc(-c3ccccc3)nc2-c2ccncc2)C1` [Cpd. No. 66, 1-(2-phenyl-4-(pyridin-4-yl)-5,8-dihydropyrido[3,4-d]pyrimidin-7(6H)-yl)prop-2-en-1-one], for which the EC50 is 1000 to 3000 nM.

The molecule `C=CC(=O)N1CCc2c(nc(-c3ccccc3)nc2-c2cnn(C(F)F)c2)C1` [Cpd. No. 61, 1-(4-(1-(difluoromethyl)-1H-pyrazol-4-yl)-2-phenyl-5,8-dihydropyrido[3,4-d]pyrimidin-7(6H)-yl)prop-2-en-1-one] displayed an EC50 of 1000 to 3000 nM.

Regarding `C=CC(=O)N1CCc2c(nc(Cc3cccc(C(F)(F)F)c3)nc2-c2ccn(Cc3cccnc3)n2)C1` [Cpd. No. 50, 1-(4-(1-(pyridin-3-ylmethyl)-1H-pyrazol-3-yl)-2-(3-(trifluoromethyl)benzyl)-5,8-dihydropyrido[3,4-d]pyrimidin-7(6H)-yl)prop-2-en-1-one], the EC50 is less than 1000 nM.

`CCC(=O)N1Cc2nc(-c3ccccc3)nc(-c3ccn(Cc4cccnc4)n3)c2C1` [Cpd. No. 24, 1-(2-phenyl-4-(1-(pyridin-3-ylmethyl)-1H-pyrazol-3-yl)-5,7-dihydro-6H-pyrrolo[3,4-d]pyrimidin-6-yl)propan-1-one] displayed an EC50 of 1000 to 3000 nM.

As to `C=CC(=O)N1CCc2c(nc(-c3ccccc3)nc2-c2cnn(C(C)C)c2)C1` [Cpd. No. 57, 1-(4-(1-isopropyl-1H-pyrazol-4-yl)-2-phenyl-5,8-dihydropyrido[3,4-d]pyrimidin-7(6H)-yl)prop-2-en-1-one], the EC50 was 1000 to 3000 nM.

`C=CC(=O)N1CCc2c(nc(-c3ccc(F)cc3)nc2-c2ccn(C(F)F)n2)C1` [Cpd. No. 70, 1-(4-(1-(difluoromethyl)-1H-pyrazol-3-yl)-2-(4-fluorophenyl)-5,8-dihydropyrido[3,4-d]pyrimidin-7(6H)-yl)prop-2-en-1-one] came in with an EC50 of less than 1000 nM.

Take `Cn1ccc(-c2nc(Cc3ccccc3)nc3c2CN(S(C)(=O)=O)C3)n1` [Cpd. No. 22, 2-benzyl-4-(1-methyl-1H-pyrazol-3-yl)-6-(methylsulfonyl)-6,7-dihydro-5H-pyrrolo[3,4-d]pyrimidine]: the EC50 is greater than 3000 nM.

Consider `CCC(=O)N1Cc2nc(-c3ccccc3)nc(-c3ccn(C)n3)c2C1` [Cpd. No. 15, 1-(4-(1-methyl-1H-pyrazol-3-yl)-2-phenyl-5,7-dihydro-6H-pyrrolo[3,4-d]pyrimidin-6-yl)propan-1-one], for which the EC50 is greater than 3000 nM.

Regarding `CCC(=O)N1Cc2nc(Cc3ccccc3)nc(-c3ccn(C)n3)c2C1` [Cpd. No. 21, 1-(2-benzyl-4-(1-methyl-1H-pyrazol-3-yl)-5,7-dihydro-6H-pyrrolo[3,4-d]pyrimidin-6-yl)propan-1-one], the EC50 lay in the range of 1000 to 3000 nM.

For the molecule `Cn1ccc(-c2nc(-c3ccccc3)nc3c2CCC(NS(C)(=O)=O)C3)n1` (stereo not shown) [Cpd. No. 8, N-(4-(1-methyl-1H-pyrazol-3-yl)-2-phenyl-5,6,7,8-tetrahydroquinazolin-7-yl)methanesulfonamide], the EC50 is greater than 3000 nM.

The molecule `C=CC(=O)N1CCc2c(nc(-c3ccccc3)nc2-c2cnn(C)c2)C1` [Cpd. No. 56] returned an EC50 of less than 1000 nM.

For `C=CC(=O)N1CCc2c(nc(Cc3ccc(C(F)(F)F)cc3)nc2-c2ccn(C)n2)C1` [Cpd. No. 45, 1-(4-(1-methyl-1H-pyrazol-3-yl)-2-(4-(trifluoromethyl)benzyl)-5,8-dihydropyrido[3,4-d]pyrimidin-7(6H)-yl)prop-2-en-1-one], the EC50 is less than 1000 nM.

For `C=CC(=O)N1CCc2c(nc(-c3ccccc3)nc2-c2cccnc2)C1` [Cpd. No. 63, 1-(2-phenyl-4-(pyridin-3-yl)-5,8-dihydropyrido[3,4-d]pyrimidin-7(6H)-yl)prop-2-en-1-one], the EC50 is less than 1000 nM.

In turn, `CCC(=O)N1CCc2c(nc(Cc3ccc(F)cc3)nc2-c2ccn(C)n2)C1` [Cpd. No. 42, 1-(2-(4-fluorobenzyl)-4-(1-methyl-1H-pyrazol-3-yl)-5,8-dihydropyrido[3,4-d]pyrimidin-7(6H)-yl)propan-1-one] gave an EC50 greater than 3000 nM.

`CCC(=O)N1CCc2c(nc(-c3ccc(C(F)(F)F)cc3)nc2-c2cnn(C)n2)C1` [Cpd. No. 93, 1-(4-(2-methyl-2H-1,2,3-triazol-4-yl)-2-(4-(trifluoromethyl)phenyl)-5,8-dihydropyrido[3,4-d]pyrimidin-7(6H)-yl)propan-1-one] displayed an EC50 of 1000 to 3000 nM.

Values taken from patent publication US12516064B2, “Tetrahydropyridopyrimidines and related analogs for inhibiting YAP/TAZ-TEAD” (THE KATHOLIEKE UNIVERSITEIT LEUVEN, priority 2022, dated 2026).
